Laboratory results: US7666611B2, “Lysophosphatidic acid receptor” (Japan Science and Technology Agency, priority 2003, dated 2010)
Entries after “also recorded” stand apart in the source; their conditions may differ.

Experiments:
p2y9 = molecular target: T1, p2y9 (Homo sapiens, UniProt Q99677); test: Intracellular calcium increase in four CHO clones stably expressing p2y9 (Fura-2); format: cell-based; conditions: p2y9 clones vs negative control, FIG. 15
T1 construct: expressed in transfected cells
Procedure: Then the investigation with respect to CHO clone has been carried out. Experiment of calcium incorporation was conducted in four independent CHO clones, #01, #09, #15 and #20, stably expressing p2y9. […] As a negative control, CHO cells which acquired neomycin resistance by transfected only with pCXN2.1 vector were used.
Four types of CHO clones, #01, #09, #15 and #20, stably expressing p2y9 were incubated for 24 hours in the medium of Ham's F-12 supplemented with 0.1% BSA in replacement of Ham's F-12 supplemented with 10% fetal bovine serum. The cells were then suspended in HEPES-Tyrode's buffer (140 mM NaCl, 2.7 mM KCl, 1 mM CaCl2, 12 mM NaHCO3, 5.6 mM D-glucose, 0.49 mM MgCl2, 0.37 mM NaH2PO4, and 25 mM HEPES-NaOH (pH 7.4)) containing 3 μM Fura-2 (calcium indicator) and 0.01% Cremophor EL. Cells were incubated at 37° C. for 1 hour for incorporation of Fura-2. Cells were then resuspended in HEPES-Tyrode's buffer in order to achieve a cell density of 1×10^6 cells/ml. The changes in intracellular concentrations with addition of various concentrations of LPAs were monitored by using CAF-100 spectrofluorometer (Jasco, Tokyo, Japan). As a negative control, CHO cells which acquired neomycin resistance by transfected only with pCXN2.1 vector were used.

[1] = system: ATP receptors endogenously expressed in CHO cells; test: ATP positive control, intracellular calcium change in CHO clones; format: cell-based; conditions: ATP 1 μM, 10 μM and 100 μM
Procedure: Over 200 lipids (Lipid Library; BIOMOL) and nucleotides were screened using CHO clones of respective receptors by monitoring changes in intracellular calcium concentrations. As positive controls for the screenings, ATP with concentrations of 1 μM, 10 μM and 100 μM were used.
CHO clones of four individual receptors such as GPR34, p2y5, p2y9 and p2y10 were seeded respectively in three 96-well plates at a density of 4×10^4 cells/well. On the following day, cells were loaded with 4 μM of Fluo-3 (calcium indicator) and incubated at 37° C. for 1 hour for incorporation of Fluo-3. Cells were then reacted with individual lipids (1 to 10 μM) contained in the Lipid Library of BIOMOL comprising over 200 kinds of lipid molecules and 17 nucleotides (1 to 100 μM) such as ATP, then time course kinetics of intracellular calcium mobilization was monitored with FLEXstation of Molecular Devices.
This enabled to confirm the relevance of the experiment.

T1 sequence (Q99677 whole entry): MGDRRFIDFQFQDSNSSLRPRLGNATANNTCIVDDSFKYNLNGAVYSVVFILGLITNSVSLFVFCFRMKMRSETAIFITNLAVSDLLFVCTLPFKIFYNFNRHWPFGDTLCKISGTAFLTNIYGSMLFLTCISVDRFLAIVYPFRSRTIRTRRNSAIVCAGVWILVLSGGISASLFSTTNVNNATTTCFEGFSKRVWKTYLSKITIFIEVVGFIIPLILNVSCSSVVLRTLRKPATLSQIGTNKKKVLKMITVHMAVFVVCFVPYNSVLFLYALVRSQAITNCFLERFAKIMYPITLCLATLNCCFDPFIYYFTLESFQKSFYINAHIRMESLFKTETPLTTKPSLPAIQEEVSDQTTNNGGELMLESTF

Nc1ncnc2c1ncn2[C@@H]1O[C@H](COP(=O)(O)OP(=O)(O)OP(=O)(O)O)[C@@H](O)[C@H]1O [ATP]
increase in intracellular calcium concentration (p2y9; ATP 10 μM): no significant difference; also recorded: no significant changes
change in intracellular calcium concentration [1]: remarkable change in intracellular calcium concentration beyond the measurable range; also recorded: changes in calcium concentration beyond the measurable range

platelet activating factor [PAF]
increase in intracellular calcium concentration (p2y9; PAF 1 μM): no significant difference; also recorded: no significant changes

thrombin
increase in intracellular calcium concentration (p2y9; thrombin 0.1 NIH units/ml): no significant difference; also recorded: no significant changes
